Test results taken from ChEMBL document CHEMBL6103592, “Discovery of novel thiazole-pleuromutilin derivatives with potent antibacterial activity” (Eur J Med Chem, 2025).
Values after ≈ are worked out from the molar mass of the structure shown. Active and inactive are the calls of the source. The calls are words filed in the database; no cut-off is given here.

Tests used:
[1] = test system: Staphylococcus aureus; experiment: Antibacterial activity against methicillin-resistant Staphylococcus aureus ATCC 43300 assessed as inhibition of visible bacterial growth incubated for 24 hrs by CLSI based broth microdilution method; type: functional
[2] = test system: Mycoplasma; experiment: Antibacterial activity against Mycoplasma F3 assessed as inhibition of visible bacterial growth incubated for 24 hrs by CLSI based broth microdilution method; type: functional
[3] = test system: Staphylococcus aureus; experiment: Antibacterial activity against methicillin-resistant Staphylococcus aureus ATCC 43300 assessed as post antibiotic effect at 1 times MIC measured after 1 hr; type: functional
[4] = test system: Staphylococcus aureus; experiment: Antibacterial activity against methicillin-resistant Staphylococcus aureus ATCC 43300 assessed as post antibiotic effect at 2 times MIC measured after 1 hr; type: functional
[5] = test system: Staphylococcus aureus; experiment: Antibacterial activity against methicillin-resistant Staphylococcus aureus ATCC 43300 assessed as post antibiotic effect at 4 times MIC measured after 1 hr; type: functional
[6] = test system: Staphylococcus aureus; experiment: Antibacterial activity against methicillin-resistant Staphylococcus aureus ATCC 43300 assessed as post antibiotic effect at 8 times MIC measured after 1 hr; type: functional
[7] = test system: Staphylococcus aureus; experiment: (§1) Antibacterial efficacy against methicillin-resistant Staphylococcus aureus ATCC 43300 infected in cyclophosphamide-induced neutropenic systemic infection Kunming mouse model assessed as reduction in bacterial load in kidney at 20 mg/kg, iv pretreated with cyclophosphamide for 1 hr followed by compound addition and measured after 5 days; type: functional, organism-based; settings: time 5.0 day
[8] = test system: Staphylococcus aureus; experiment: as §1, with “inflammatory cell infiltration” for “reduction”, “lung” for “bacterial load in kidney”, “days by light microscopic analysis” for “days”; type: functional, organism-based; settings: time 5.0 day
[9] = test system: HepG2; experiment: Cytotoxicity against human HepG2 cells assessed as cell viability at 200 micromol/L incubated for 24 hrs by CCK-8 assay relative to control; type: functional; settings: HepG2, 24 h, dose 200 µmol/L, read-out: Activity
[10] = Cytotoxicity against human HEK293T cells assessed as cell viability incubated for 24 hrs by CCK-8 assay; type: toxicity, cell-based, HEK-293T
[11] = test system: HepG2; experiment: Cytotoxicity against human HepG2 cells assessed as cell viability incubated for 24 hrs by CCK-8 assay; type: functional, cell-based; settings: HepG2, 24 h
[12] = Acute toxicity in rat assessed as tremors at 2000 mg/kg, po measured for 14 days; type: organism-based; settings: in vivo, 336 h, time 14 day
[13] = Acute toxicity in rat assessed as decrease in locomotor activity at 2000 mg/kg, po measured for 14 days; type: organism-based; settings: in vivo, 336 h, time 14 day
[14] = Acute toxicity in rat assessed as reduction in food intake at 2000 mg/kg, po measured for 14 days; type: organism-based; settings: in vivo, 336 h, time 14 day
[15] = Acute toxicity in rat assessed as reduction in water consumption at 2000 mg/kg, po measured for 14 days; type: organism-based; settings: in vivo, 336 h, time 14 day
[16] = Acute toxicity in rat assessed as reduction in food intake at 2000 mg/kg, po measured at 24 hrs; type: organism-based; settings: in vivo
[17] = Acute toxicity in rat assessed as reduction in water consumption at 2000 mg/kg, po measured at 24 hrs; type: organism-based; settings: in vivo
[18] = Acute toxicity in rat assessed as animal death at 2000 mg/kg, po measured for 14 days; type: organism-based; settings: in vivo, 336 h, time 14 day
[19] = Acute toxicity in rat assessed as pathological changes in heart at 2000 mg/kg, po measured for 14 days; type: organism-based; settings: in vivo, 336 h, time 14 day
[20] = Acute toxicity in rat assessed as pathological changes in liver at 2000 mg/kg, po measured for 14 days; type: organism-based; settings: in vivo, 336 h, time 14 day
[21] = Acute toxicity in rat assessed as pathological changes in lung at 2000 mg/kg, po measured for 14 days; type: organism-based; settings: in vivo, 336 h, time 14 day
[22] = Acute toxicity in rat assessed as pathological changes in kidney at 2000 mg/kg, po measured for 14 days; type: organism-based; settings: in vivo, 336 h, time 14 day
[23] = Acute toxicity in rat assessed as swelling in uterus at 2000 mg/kg, po measured for 14 days by H and E staining based analysis; type: organism-based; settings: in vivo, 336 h, time 14 day
[24] = Acute toxicity in rat assessed as degeneration of endometrial epithelial cells at 2000 mg/kg, po measured for 14 days by H and E staining based analysis; type: organism-based; settings: in vivo, 336 h, time 14 day
[25] = Acute toxicity in rat assessed as absolute heart weight at 2000 mg/kg, po measured for 7 days (reference value: 0.77 +/- 0.12 g); type: organism-based; settings: in vivo, 168 h, time 7 day
[26] = Acute toxicity in rat assessed as absolute liver weight at 2000 mg/kg, po measured for 7 days (reference value: 8.43 +/- 0.43 g); type: organism-based; settings: in vivo, 168 h, time 7 day
[27] = Acute toxicity in rat assessed as absolute spleen weight at 2000 mg/kg, po measured for 7 days (reference value: 0.53 +/- 0.04g); type: organism-based; settings: in vivo, 168 h, time 7 day
[28] = Acute toxicity in rat assessed as absolute lung weight at 2000 mg/kg, po measured for 7 days (reference value: 1.12 +/- 0.07g); type: organism-based; settings: in vivo, 168 h, time 7 day
[29] = Acute toxicity in rat assessed as absolute kidney weight at 2000 mg/kg, po measured for 7 days (reference value: 1.60 +/- 0.16 g); type: organism-based; settings: in vivo, 168 h, time 7 day
[30] = Acute toxicity in rat assessed as absolute uterus weight at 2000 mg/kg, po measured for 7 days (reference value: 0.52 +/- 0.18 g); type: organism-based; settings: in vivo, 168 h, time 7 day
[31] = Acute toxicity in rat assessed as absolute heart weight at 2000 mg/kg, po administered for 7 days followed by readministration after 7 days and measured at 14 days (reference value: 0.77 +/- 0.12 g); type: organism-based; settings: in vivo, 336 h, time 14 day
[32] = Acute toxicity in rat assessed as absolute spleen weight at 2000 mg/kg, po administered for 7 days followed by readministration after 7 days and measured at 14 days (reference value: 0.53 +/- 0.04 g); type: organism-based; settings: in vivo, 336 h, time 14 day
[33] = Acute toxicity in rat assessed as absolute lung weight at 2000 mg/kg, po administered for 7 days followed by readministration after 7 days and measured at 14 days (reference value: 1.12 +/- 0.07 g); type: organism-based; settings: in vivo, 336 h, time 14 day
[34] = Acute toxicity in rat assessed as absolute kidney weight at 2000 mg/kg, po administered for 7 days followed by readministration after 7 days and measured at 14 days (reference value: 1.60 +/- 0.16 g); type: organism-based; settings: in vivo, 336 h, time 14 day
[35] = Acute toxicity in rat assessed as relative heart weight at 2000 mg/kg, po measured for 7 days (reference value: 0.40 +/- 0.06%); type: organism-based; settings: in vivo, 168 h, time 7 day
[36] = Acute toxicity in rat assessed as relative liver weight at 2000 mg/kg, po measured for 7 days (reference value: 4.36 +/- 0.23 %); type: organism-based; settings: in vivo, 168 h, time 7 day
[37] = Acute toxicity in rat assessed as relative lung weight at 2000 mg/kg, po measured for 7 days (reference value: 0.58 +/- 0.03%); type: organism-based; settings: in vivo, 168 h, time 7 day
[38] = Acute toxicity in rat assessed as relative kidney weight at 2000 mg/kg, po measured for 7 days (reference value: 0.83 +/- 0.08%); type: organism-based; settings: in vivo, 168 h, time 7 day
[39] = Acute toxicity in rat assessed as relative uterus weight at 2000 mg/kg, po measured for 7 days (reference value: 0.27 +/- 0.09%); type: organism-based; settings: in vivo, 168 h, time 7 day
[40] = Acute toxicity in rat assessed as relative spleen weight at 2000 mg/kg, po administered for 7 days followed by readministration after 7 days and measured at 14 days (reference value: 0.27 +/- 0.02 %); type: organism-based; settings: in vivo, 336 h, time 14 day
[41] = Acute toxicity in rat assessed as relative kidney weight at 2000 mg/kg, po administered for 7 days followed by readministration after 7 days and measured at 14 days (reference value: 0.83 +/- 0.08%); type: organism-based; settings: in vivo, 336 h, time 14 day

For `C=C[C@]1(C)C[C@@H](OC(=O)CSc2nc(OC(=O)c3ccc(C(C)(C)C)cc3)cs2)[C@]2(C)[C@H](C)CC[C@]3(CCC(=O)[C@H]32)[C@@H](C)[C@@H]1O`, the MIC [1] was 0.25 mg/L (≈ 0.382 µM), the MIC [2] was 0.125 mg/L (≈ 0.191 µM) and the PAE [3] was 0.801 h. For the same compound, the PAE [4] was 1.09 h, the PAE [5] was 1.85 h and the PAE [6] was 2.27 h. The Activity [7] was “inactive”, the Activity [8] was “Active” and the viability at 200 µM [9] was 94.3%. The IC50 at 24 h [10] was greater than 200 µM, the IC50 [11] was greater than 200 µM and the Activity [12] was “Non-toxic”. The Activity [13] was “Non-toxic”, the Activity [14] was “Toxic” and the Activity [15] was “Toxic”. The Activity [16] was “Non-toxic”, the Activity [17] was “Non-toxic” and the Activity [18] was “Non-toxic”. The Activity [19] was “Non-toxic”, the Activity [20] was “Non-toxic” and the Activity [21] was “Non-toxic”. For the same compound, the Activity [22] was “Non-toxic”, the Activity [23] was “Non-toxic” and the Activity [24] was “Non-toxic”. For the same compound, the Activity [25] was 0.75 g, the Activity [26] was 8.5 g and the Activity [27] was 0.53 g. The Activity [28] was 1.13 g, the Activity [29] was 1.54 g and the Activity [30] was 0.52 g. For the same compound, the Activity [31] was 0.78 g, the Activity [32] was 0.53 g and the Activity [33] was 1.28 g. For the same compound, the Activity [34] was 1.63 g, the Activity [35] was 0.39% and the Activity [36] was 4.34%. The Activity [37] was 0.58%, the Activity [38] was 0.8% and the Activity [39] was 0.27%. The Activity [40] was 0.25% and the Activity [41] was 0.76%.
